Laboratory results taken from patent US20260364068A1, “ANTIVIRAL USE OF HETEROARYL DERIVATIVE COMPOUND” (UIF (University Industry Foundation), Yonsei University, priority 2022, published 2026).
Read-outs that look alike come from different tables or passages of the source.

Assays:
Type in all cases: cell-based
[1] = Cell viability measurement (MTS), Vero cells; conditions: monkey
Description: (§1) Experimental Example 3: Cell Viability Measurement
(§2) Vero cell line (VERO01WCB-1201, Ministry of Food and Drug Safety, Republic of Korea), Calu-3 cell line (KCLB #30055, Korea Cell Line Bank (KCLB), Republic of Korea), CellTiter 96® AQueous One Solution Cell Proliferation Assay kit (Promega, cat. #G3582), and Infinite M200 microplate reader (Tecan).
Vero cells were cultured at 37 °C and 5% CO2 in DMEM medium supplemented with 10% fetal bovine serum, 100 units/mL penicillin, and 100 μg/mL streptomycin.
(§3) Vero cells or Calu-3 cells were seeded in 96-well microplates and cultured for 24 hours until the cell confluency reached 20%. After the incubation, compounds were treated in DMSO at concentrations (1, 3, and 10 μM) to reach 0.5% v/v in each well, and reacted at 37 °C for 48 hours. Into each well of the incubated 96-well microplate, 3-(4,5-dimethylthiazol-2-yl)-5-(3-carboxymethoxyphenyl)-2-(4-sulfophenyl)-2H-tetrazolium salt (MTS) assay solution [CellTiter 96® AQueous One Solution Cell Proliferation Assay kit (Promega)] mixed with DMEM medium at a ratio of 1:5, was dispensed at 100 μL/well and incubated at 37 °C for 1 hour. The 490 nm and 690 nm absorbance was then measured using an Infinite M200 instrument.
(§4) The cell viability (also, referred to as cell survival rate) (%) by compound treatment was calculated using the following analysis method. The 690 nm background absorbance value was subtracted from the measured 490 nm absorbance value. Then, to obtain the cell viability of each test group, the viability of the DMSO-treated group that was not treated with the compound was set to 100% and then the relative viability 1 of each compound was calculated. Two to six repeated tests were performed to obtain the results, and the mean values of the results were categorized into the following ranges and shown in Table 5 below (A: 80% survived, B: 50-80% survived, N/A: not tested)

[2] = system: Severe Acute Respiratory Syndrome Coronavirus Type 2; assay: microbe, parasite or virus in culture; conditions: Calu-3, 10 uM, read-out: Virus replication inhibition efficacy
[3] = Cell viability measurement (MTS), Calu-3 cells; conditions: human
Description: as §1, §2
Calu-3 cells were cultured at 37 °C and 5% CO2 in MEM medium supplemented with 10% fetal bovine serum, 2.2 g/L sodium bicarbonate, 1% 100 units/mL penicillin, and 100 μg/mL streptomycin.
as §3, §4

[4] = virus strain NCCP-43344, 48 hours
[5] = virus strain NCCP-43388, 48 hours

Structure (SMILES) | viability at 48 h, 1 µM [1] [%] | viability at 48 h, 3 µM [1] [%] | viability at 48 h, 10 µM [1] [%] | viability at 48 h, 1 µM [3] [%] | also measured
FC(F)(F)c1ccc2nc(-c3cccc(Nc4ccc(-c5ccccc5)nn4)c3)[nH]c2c1 [Example 1, 6-phenyl-N-(3-(6-(trifluoromethyl)-1H-benzo[d]imidazol-2-yl)phenyl)pyridazin-3-amine] | > 80 | > 80 |  |  | 
CC(C)(C)c1ccc2nc(-c3cccc(Nc4ccc(-c5ccccc5)nn4)c3)[nH]c2c1 [Example 3, N-[3-(6-tert-butyl-1H-benzo[d]imidazol-2-yl)phenyl]-6-phenylpyridazin-3-amine] | > 80 | 50 to 80 |  |  | 
Fc1cc2nc(-c3cccc(Nc4ccc(-c5ccccc5)nn4)c3)[nH]c2cc1Br [Example 4, N-[3-(6-bromo-5-fluoro-1H-benzo[d]imidazol-2-yl)phenyl]-6-phenylpyridazin-3-amine] | > 80 | > 80 | 50 to 80 |  | 
FC(F)(F)Oc1ccc2nc(-c3cccc(Nc4ccc(-c5ccccc5)nn4)c3)[nH]c2c1 [Example 6, 6-phenyl-N-(3-(6-(trifluoromethoxy)-1H-benzo[d]imidazol-2-yl)phenyl)pyridazin-3-amine] | > 80 | 50 to 80 |  |  | 
Clc1cc2nc(-c3cccc(Nc4ccc(-c5ccccc5)cn4)c3)[nH]c2cc1Cl [Example 13, N-[3-(5,6-dichloro-1H-benzo[d]imidazol-2-yl)phenyl]-5-phenylpyridin-2-amine] | > 80 | > 80 | 50 to 80 |  | inhibition at 10 µM [2, 4]: > 60%
FC(F)(F)c1ccc2nc(-c3cccc(Nc4ncc(-c5ccccc5)cn4)c3)[nH]c2c1 [Example 14, 5-phenyl-N-(3-(6-(trifluoromethyl)-1H-benzo[d]imidazol-2-yl)phenyl)pyrimidin-2-amine] | > 80 |  |  |  | 
Fc1cccc(-c2ccc(Nc3cccc(-c4nc5ccc(C(F)(F)F)cc5[nH]4)c3)nc2)c1 [Example 18, 5-(3-fluorophenyl)-N-(3-(6-(trifluoromethyl)-1H-benzo[d]imidazol-2-yl)phenyl)pyridin-2-amine] | > 80 |  | 50 to 80 |  | 
Fc1ccc2nc(-c3cccc(Nc4ccc(-c5cccnn5)cc4)c3)[nH]c2c1 [Example 25, 3-(6-fluoro-1H-benzo[d]imidazol-2-yl)-N-(4-(pyridazin-3-yl)phenyl)aniline] | > 80 | > 80 | > 80 |  | inhibition at 10 µM [2, 4]: > 60%
FC(F)(F)c1ccc2nc(-c3cccc(Nc4ccc(-c5cnccn5)cc4)c3)[nH]c2c1 [Example 29, N-[4-(pyrazin-2-yl)phenyl]-3-[6-(trifluoromethyl)-1H-benzo[d]imidazol-2-yl]aniline] | > 80 |  |  |  | 
c1cc(Nc2ccc(-c3cncnc3)cc2)cc(-c2nc3ccccc3[nH]2)c1 [Example 30, 3-(1H-benzo[d]imidazol-2-yl)-N-(4-(pyrimidin-5-yl)phenyl)aniline] | > 80 | 50 to 80 |  | 50 to 80 | inhibition at 10 µM [2, 5]: > 60%
c1cncc(-c2ccc(Nc3cccc(-c4nc5ccccc5[nH]4)c3)cc2)c1 [Example 31, N-[3-(1H-benzo[d]imidazol-2-yl)phenyl]-4-(pyridin-3-yl)aniline] | > 80 |  | 50 to 80 | 50 to 80 | 
c1cc(Nc2ccc(-c3cnccn3)cc2)cc(-c2nc3ccccc3[nH]2)c1 [Example 32, 3-(1H-benzo[d]imidazol-2-yl)-N-(4-(pyrazin-2-yl)phenyl)aniline] | > 80 | > 80 | 50 to 80 | > 80 | viability at 48 h, 3 µM [3]: 50 to 80%; inhibition at 10 µM [2, 5]: > 60%
Cc1cscc1-c1cnc(Nc2cccc(-c3nc4ccccc4[nH]3)c2)nc1 [Example 43, N-(3-(1H-benzo[d]imidazol-2-yl)phenyl)-5-(4-methylthiophen-3-yl)pyrimidin-2-amine] | > 80 |  | > 80 | > 80 | viability at 48 h, 3 µM [3]: 50 to 80%
c1ccc(-c2cnc(Nc3cccc(-c4nc5ccccc5[nH]4)c3)nc2)nc1 [Example 44, N-(3-(1H-benzo[d]imidazol-2-yl)phenyl)-5-(pyridin-2-yl)pyrimidin-2-amine] |  |  |  | > 80 | viability at 48 h, 3 µM [3]: 50 to 80%; inhibition at 10 µM [2, 5]: > 60%
Fc1ccc2nc(-c3cccc(Nc4ncc(-c5ccccn5)cn4)c3)[nH]c2c1 [Example 45, N-[3-(6-fluoro-1H-benzo[d]imidazol-2-yl)phenyl]-5-(pyridin-2-yl)pyrimidin-2-amine] |  | > 80 | 50 to 80 | 50 to 80 | inhibition at 10 µM [2, 5]: 30 to 60%
FC(F)(F)c1ccc2nc(-c3cccc(Nc4ncc(-c5cccnn5)cn4)c3)[nH]c2c1 [Example 52, 5-(pyridazin-3-yl)-N-(3-(6-(trifluoromethyl)-1H-benzo[d]imidazol-2-yl)phenyl)pyrimidin-2-amine] | > 80 | > 80 | > 80 | 50 to 80 | viability at 48 h, 3 µM [3]: 50 to 80%; viability at 48 h, 10 µM [3]: 50 to 80%
Fc1ccc2nc(-c3cccc(Nc4ccc(-c5cccnn5)cn4)c3)[nH]c2c1 [Example 55] | > 80 |  | 50 to 80 |  | 
c1cc(Nc2ccc(-c3cccnn3)cn2)cc(-c2nc3ccccc3[nH]2)c1 [Example 56, N-[3-(1H-benzo[d]imidazol-2-yl)phenyl]-5-(pyridazin-3-yl)pyridin-2-amine] | > 80 |  | > 80 | > 80 | viability at 48 h, 3 µM [3]: 50 to 80%
FC(F)(F)c1ccc2nc(-c3cccc(Nc4ccc(-c5ccccn5)cn4)c3)[nH]c2c1 [Example 57, N-{3-[6-(trifluoromethyl)-1H-benzo[d]imidazol-2-yl]phenyl}-[2,3′-bipyridin]-6′-amine] | > 80 | > 80 | 50 to 80 | 50 to 80 | 
Fc1ccc2nc(-c3cccc(Nc4ccc(-c5ccccn5)cn4)c3)[nH]c2c1 [Example 58, N-(3-(6-fluoro-1H-benzo[d]imidazol-2-yl)phenyl)-[2,3′-bipyridine]-6′-amine] | > 80 | > 80 |  | 50 to 80 | 
c1ccc(-c2ccc(Nc3cccc(-c4nc5ccccc5[nH]4)c3)nc2)nc1 [Example 59, N-[3-(1H-benzo[d]imidazol-2-yl)phenyl]-[2,3′-bipyridin]-6′-amine] | > 80 |  |  | > 80 | viability at 48 h, 3 µM [3]: 50 to 80%
COC(=O)c1ccc2nc(-c3cccc(Nc4ccc(-c5cccnn5)cc4)c3)[nH]c2c1 [Example 61, methyl 2-(3-((4-(pyridazin-3-yl)phenyl)amino)phenyl)-1H-benzo[d]imidazol-6-carboxylate] | > 80 |  |  |  | 
Fc1ccc2nc(-c3cccc(Nc4ccc(-c5ccncn5)cn4)c3)[nH]c2c1 [Example 72, N-(3-(6-fluoro-1H-benzo[d]imidazol-2-yl)phenyl)-5-(pyrimidin-4-yl)pyridin-2-amine] |  | > 80 |  |  | 
Fc1cc2nc(-c3cccc(Nc4cnc(-c5ccccn5)cn4)c3)[nH]c2cc1F [Example 298, N-(3-(5,6-difluoro-1H-benzo[d]imidazol-2-yl)phenyl)-5-(pyridin-2-yl)pyrazin-2-amine] |  |  |  |  | inhibition at 10 µM [2, 5]: 30 to 60%
FC(F)Oc1ccc2nc(-c3cccc(Nc4cnc(-c5ccccn5)cn4)c3)[nH]c2c1 [Example 300, N-(3-(6-(difluoromethoxy)-1H-benzo[d]imidazol-2-yl)phenyl)-5-(pyridin-2-yl) pyrazin-2-amine] |  |  |  |  | viability at 48 h, 10 µM [3]: > 80%
Clc1cc2[nH]c(-c3cccc(Nc4cnc(-c5ccccn5)cn4)c3)nc2cn1 [Example 301, N-(3-(6-chloro-1H-imidazo[4,5-c]pyridin-2-yl)phenyl)-5-(pyridin-2-yl)pyrazin-2-amine] |  |  |  |  | viability at 48 h, 10 µM [3]: > 80%
Clc1cc2[nH]c(-c3cccc(Nc4ncc(-c5cscn5)cn4)c3)nc2cn1 [Example 303, N-(3-(6-chloro-1H-imidazo[4,5-c]pyridin-2-yl)phenyl)-5-(thiazol-4-yl)pyrimidin-2-amine] |  |  |  |  | viability at 48 h, 10 µM [3]: 50 to 80%
